Data published in patent publication EP4467141A1, “PYRAZOLO-QUINOLINES AS SELECTIVE INHIBITORS OF GENOTOXIC STRESS-INDUCED IKK/NF- KB PATHWAYS FOR CANCER THERAPY” (Max-Delbrück-Centrum für Molekulare Medizin in der …, priority 2023, dated 2024).

Legend:
Experiment in all cases: Kinase panel study
Type in all cases: biochemical
AKT2 (PKB beta) = target: T1, AKT2 (PKB beta) (Homo sapiens, UniProt P31751); details: AKT2 (PKB beta); compound at 10µM; read-out: % of Inhibition
T1 construct: purchased Thermo Fisher Scientific
Experimental: (§1) The Kinase panel study was entirely provided by Thermo Fisher Scientific using the two lead compounds MW01 and MW05 as well as their derivatives (MW01-E06, MW01-E10, MW01-E14, MW01-E18, MW05-E2, MW05-E3, MW05-E9 and MW05-E10. The experiment was performed using the ZLyte or Adapta protocol according to manufacturer standard operating procedures.
(§2) Based on their similar effects in our screen and molecular analysis, MW01 and MW05 were used in comparative target deconvolution studies seeking common targets despite their distinct structures. To eliminate previously identified kinases regulating NF-κB activity, such as IKK, as possible targets of MW01 and MW05, an in vitro kinase inhibition assay was performed. […] We next investigated if any of the shared kinase targets of MW01 and MW05 play a role in genotoxic stress-induced NF-κB activity and established several criteria to narrow down pathway-relevant targets. Considering the similar NF-κB inhibition phenotypes of both compounds, we hypothesized first that the target should be shared by both lead compounds. Second, based on the CaCo2 recovery values and experimental treatment concentration of 10 µM), the putative target kinase should have a low IC50 of, at most, 2000 nM for both lead compounds in the in vitro kinase panel (Fig. 2A). Based on these criteria alone, we arrived at a relatively short list of potential targets for further analysis, leaving only PIK3CG, PIK3C2G, and CLK2 (Fig. 2B). IC50 values for PIK3C2G by both lead compounds agreed best with these criteria, but RNA expression analysis indicates high tissue specificity as well as lack of expression of this kinase in our U2-OS model cell line, which we then eliminated from further analysis (Uhlén et al., 2015). […] Table 6: Percentage of inhibition of the indicated kinases by MW01 or MW05 at either 10 µM or 1 µM. n.d. = not determined.

ALK = target: T2, ALK (Homo sapiens, UniProt Q9UM73); details: ALK; compound at 10µM; read-out: % of Inhibition
T2 construct: purchased Thermo Fisher Scientific
Experimental: as §1, §2

BLK = target: T3, BLK (Homo sapiens, UniProt P51451); details: BLK; compound at 10µM; read-out: % of Inhibition
T3 construct: purchased Thermo Fisher Scientific
Experimental: as §1, §2

BTK = target: T4, BTK (Homo sapiens, UniProt Q06187); details: BTK; compound at 10µM; read-out: % of Inhibition
T4 construct: purchased Thermo Fisher Scientific
T4 sequence (Q06187 whole entry): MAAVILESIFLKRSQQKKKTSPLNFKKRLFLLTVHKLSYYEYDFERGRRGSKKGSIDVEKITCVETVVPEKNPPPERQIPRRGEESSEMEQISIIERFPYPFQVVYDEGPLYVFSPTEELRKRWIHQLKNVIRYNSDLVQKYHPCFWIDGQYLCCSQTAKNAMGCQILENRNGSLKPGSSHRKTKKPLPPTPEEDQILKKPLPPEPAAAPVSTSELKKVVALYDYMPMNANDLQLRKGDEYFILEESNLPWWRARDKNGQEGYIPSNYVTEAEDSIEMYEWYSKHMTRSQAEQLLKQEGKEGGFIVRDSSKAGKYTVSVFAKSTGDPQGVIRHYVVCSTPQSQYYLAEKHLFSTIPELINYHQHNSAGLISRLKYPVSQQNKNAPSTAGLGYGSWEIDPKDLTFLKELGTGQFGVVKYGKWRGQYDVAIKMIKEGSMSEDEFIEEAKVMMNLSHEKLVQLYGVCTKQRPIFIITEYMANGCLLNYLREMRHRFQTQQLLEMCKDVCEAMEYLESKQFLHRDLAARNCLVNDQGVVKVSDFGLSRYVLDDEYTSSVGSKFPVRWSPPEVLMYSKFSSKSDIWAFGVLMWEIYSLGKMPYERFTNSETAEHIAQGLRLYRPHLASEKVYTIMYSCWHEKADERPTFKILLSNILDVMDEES
Experimental: as §1, §2

CSF1R (FMS) = target: T5, CSF1R (FMS) (Homo sapiens, UniProt P07333); details: CSF1R (FMS); compound at 10µM; read-out: % of Inhibition
T5 construct: purchased Thermo Fisher Scientific
Experimental: as §1, §2

DYRK1A = target: T6, DYRK1A (Homo sapiens, UniProt Q13627); details: DYRK1A; compound at 10µM; read-out: % of Inhibition
T6 construct: purchased Thermo Fisher Scientific
Experimental: as §1, §2

DYRK1B = target: T7, DYRK1B (Homo sapiens, UniProt Q9Y463); details: DYRK1B; compound at 10µM; read-out: % of Inhibition
T7 construct: purchased Thermo Fisher Scientific
Experimental: as §1, §2

EGFR (ErbB1) = target: T8, EGFR (ErbB1) (Homo sapiens, UniProt P00533); details: EGFR (ErbB1); compound at 10µM; read-out: % of Inhibition
T8 construct: purchased Thermo Fisher Scientific
Experimental: as §1, §2

GSG2 (Haspin) = target: T9, GSG2 (Haspin) (Homo sapiens, UniProt Q8TF76); details: GSG2 (Haspin); compound at 10µM; read-out: % of Inhibition
T9 construct: purchased Thermo Fisher Scientific
T9 sequence (Q8TF76 1-798): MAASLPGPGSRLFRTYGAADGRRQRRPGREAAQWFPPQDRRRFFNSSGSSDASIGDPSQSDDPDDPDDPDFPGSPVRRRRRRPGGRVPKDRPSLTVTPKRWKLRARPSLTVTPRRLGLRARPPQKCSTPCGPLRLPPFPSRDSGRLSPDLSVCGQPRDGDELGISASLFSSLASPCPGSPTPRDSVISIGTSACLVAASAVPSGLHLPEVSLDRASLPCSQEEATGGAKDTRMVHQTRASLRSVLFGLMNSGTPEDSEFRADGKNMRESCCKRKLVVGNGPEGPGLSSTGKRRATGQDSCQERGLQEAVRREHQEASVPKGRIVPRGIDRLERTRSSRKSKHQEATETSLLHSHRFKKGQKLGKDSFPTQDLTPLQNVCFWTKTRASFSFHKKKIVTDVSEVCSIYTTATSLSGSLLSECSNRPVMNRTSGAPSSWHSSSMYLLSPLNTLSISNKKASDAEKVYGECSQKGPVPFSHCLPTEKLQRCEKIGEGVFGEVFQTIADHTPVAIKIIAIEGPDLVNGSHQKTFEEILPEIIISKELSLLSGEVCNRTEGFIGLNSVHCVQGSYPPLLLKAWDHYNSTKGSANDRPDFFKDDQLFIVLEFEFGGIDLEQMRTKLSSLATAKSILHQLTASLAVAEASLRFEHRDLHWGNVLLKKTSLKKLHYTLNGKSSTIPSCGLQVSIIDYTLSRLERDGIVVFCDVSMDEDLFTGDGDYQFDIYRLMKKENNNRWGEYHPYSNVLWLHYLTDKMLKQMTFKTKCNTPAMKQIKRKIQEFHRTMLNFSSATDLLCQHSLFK
Experimental: as §1, §2

IRAK1 = target: T10, IRAK1 (Homo sapiens, UniProt P51617); details: IRAK1; compound at 10µM; read-out: % of Inhibition
T10 construct: purchased Thermo Fisher Scientific
Experimental: as §1, §2

LRRK2 = target: T11, LRRK2 (Homo sapiens, UniProt Q5S007); details: LRRK2; compound at 10µM; read-out: % of Inhibition
T11 construct: purchased Thermo Fisher Scientific
T11 sequence (Q5S007 970-2527 limits assumed): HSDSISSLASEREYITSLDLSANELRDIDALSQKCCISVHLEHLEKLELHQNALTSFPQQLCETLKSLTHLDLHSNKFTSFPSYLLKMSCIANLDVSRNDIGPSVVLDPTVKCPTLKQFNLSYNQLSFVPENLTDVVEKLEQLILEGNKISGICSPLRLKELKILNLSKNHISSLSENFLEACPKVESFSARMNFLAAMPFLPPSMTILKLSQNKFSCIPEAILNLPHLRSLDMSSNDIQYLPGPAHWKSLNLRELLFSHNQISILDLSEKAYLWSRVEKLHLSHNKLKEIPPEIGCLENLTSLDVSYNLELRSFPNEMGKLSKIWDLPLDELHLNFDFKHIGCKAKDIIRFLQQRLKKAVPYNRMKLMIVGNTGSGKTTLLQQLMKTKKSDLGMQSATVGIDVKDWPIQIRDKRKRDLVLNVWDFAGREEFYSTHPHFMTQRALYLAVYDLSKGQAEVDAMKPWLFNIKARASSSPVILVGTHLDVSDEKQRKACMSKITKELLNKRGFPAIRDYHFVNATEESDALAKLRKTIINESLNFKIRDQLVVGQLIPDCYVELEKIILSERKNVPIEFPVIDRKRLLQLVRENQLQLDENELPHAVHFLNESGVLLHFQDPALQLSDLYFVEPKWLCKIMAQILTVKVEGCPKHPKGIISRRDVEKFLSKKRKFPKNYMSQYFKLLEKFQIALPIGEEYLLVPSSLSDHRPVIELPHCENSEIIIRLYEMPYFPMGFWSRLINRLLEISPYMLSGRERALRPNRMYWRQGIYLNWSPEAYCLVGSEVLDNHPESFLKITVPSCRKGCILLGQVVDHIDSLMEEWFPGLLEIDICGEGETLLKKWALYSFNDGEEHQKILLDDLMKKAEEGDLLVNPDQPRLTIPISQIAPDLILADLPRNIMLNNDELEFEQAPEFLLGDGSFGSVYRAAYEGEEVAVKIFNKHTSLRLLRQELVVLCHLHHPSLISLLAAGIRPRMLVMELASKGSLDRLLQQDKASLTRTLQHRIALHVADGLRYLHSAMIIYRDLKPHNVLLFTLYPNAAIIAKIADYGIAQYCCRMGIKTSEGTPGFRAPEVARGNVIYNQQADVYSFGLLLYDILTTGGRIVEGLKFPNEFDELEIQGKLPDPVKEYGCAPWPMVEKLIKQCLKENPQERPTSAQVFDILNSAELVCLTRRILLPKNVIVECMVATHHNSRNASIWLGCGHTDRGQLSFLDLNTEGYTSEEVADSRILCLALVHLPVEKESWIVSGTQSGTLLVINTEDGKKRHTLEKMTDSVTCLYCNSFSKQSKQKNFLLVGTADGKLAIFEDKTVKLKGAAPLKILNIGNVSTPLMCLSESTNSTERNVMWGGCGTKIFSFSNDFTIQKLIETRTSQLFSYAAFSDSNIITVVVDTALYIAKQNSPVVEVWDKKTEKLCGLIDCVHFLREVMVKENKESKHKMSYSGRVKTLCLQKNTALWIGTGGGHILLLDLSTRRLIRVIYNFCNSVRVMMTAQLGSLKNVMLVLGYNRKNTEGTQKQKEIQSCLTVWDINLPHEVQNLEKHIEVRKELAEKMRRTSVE
Experimental: as §1, §2

MINK1 = target: T12, MINK1 (Homo sapiens, UniProt Q8N4C8); details: MINK1; compound at 10µM; read-out: % of Inhibition
T12 construct: purchased Thermo Fisher Scientific
Experimental: as §1, §2

PI4K2A (PI4K2 alpha) = target: T13, PI4K2A (PI4K2 alpha) (Homo sapiens, UniProt Q9BTU6); details: PI4K2A (PI4K2 alpha); compound at 10µM; read-out: % of Inhibition
T13 construct: purchased Thermo Fisher Scientific
Experimental: as §1, §2

PI4KB (PI4K beta) = target: T14, PI4KB (PI4K beta) (Homo sapiens, UniProt Q9UBF8); details: PI4KB (PI4K beta); compound at 10µM; read-out: % of Inhibition
T14 construct: purchased Thermo Fisher Scientific
T14 sequence (Q9UBF8 whole entry): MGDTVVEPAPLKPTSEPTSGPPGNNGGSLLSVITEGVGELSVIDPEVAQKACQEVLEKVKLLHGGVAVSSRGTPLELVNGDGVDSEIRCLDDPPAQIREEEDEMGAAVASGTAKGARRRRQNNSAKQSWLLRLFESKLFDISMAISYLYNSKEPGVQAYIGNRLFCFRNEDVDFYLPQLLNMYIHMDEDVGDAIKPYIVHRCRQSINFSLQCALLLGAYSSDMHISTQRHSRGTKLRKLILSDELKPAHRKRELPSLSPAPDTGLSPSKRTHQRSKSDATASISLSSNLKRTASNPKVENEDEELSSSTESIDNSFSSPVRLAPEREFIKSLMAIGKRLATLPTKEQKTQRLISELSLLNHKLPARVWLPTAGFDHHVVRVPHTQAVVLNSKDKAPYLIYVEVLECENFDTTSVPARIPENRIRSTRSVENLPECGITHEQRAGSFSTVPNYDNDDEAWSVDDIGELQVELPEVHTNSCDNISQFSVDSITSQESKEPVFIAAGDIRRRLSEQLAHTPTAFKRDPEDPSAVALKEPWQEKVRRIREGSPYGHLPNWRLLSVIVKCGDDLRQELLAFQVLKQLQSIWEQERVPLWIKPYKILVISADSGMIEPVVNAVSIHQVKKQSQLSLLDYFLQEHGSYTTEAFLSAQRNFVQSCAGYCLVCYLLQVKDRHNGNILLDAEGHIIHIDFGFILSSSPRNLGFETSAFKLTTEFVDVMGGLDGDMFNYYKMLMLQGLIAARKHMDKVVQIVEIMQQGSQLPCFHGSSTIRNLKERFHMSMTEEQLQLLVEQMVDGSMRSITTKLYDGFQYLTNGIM
Experimental: as §1, §2

PIK3C2A (PI3K-C2 alpha) = target: T15, PIK3C2A (PI3K-C2 alpha) (Homo sapiens, UniProt O00443); details: PIK3C2A (PI3K-C2 alpha); compound at 10µM; read-out: % of Inhibition
T15 construct: purchased Thermo Fisher Scientific
Experimental: as §1, §2

[1] = target: T16, PIK3CA/PIK3R1 (p11 0 alpha/p85 alpha) (Homo sapiens, UniProt P42336); details: PIK3CA/PIK3R1; compound at 10µM; read-out: % of Inhibition
T16 construct: purchased Thermo Fisher Scientific
T16 sequence (P42336 whole entry): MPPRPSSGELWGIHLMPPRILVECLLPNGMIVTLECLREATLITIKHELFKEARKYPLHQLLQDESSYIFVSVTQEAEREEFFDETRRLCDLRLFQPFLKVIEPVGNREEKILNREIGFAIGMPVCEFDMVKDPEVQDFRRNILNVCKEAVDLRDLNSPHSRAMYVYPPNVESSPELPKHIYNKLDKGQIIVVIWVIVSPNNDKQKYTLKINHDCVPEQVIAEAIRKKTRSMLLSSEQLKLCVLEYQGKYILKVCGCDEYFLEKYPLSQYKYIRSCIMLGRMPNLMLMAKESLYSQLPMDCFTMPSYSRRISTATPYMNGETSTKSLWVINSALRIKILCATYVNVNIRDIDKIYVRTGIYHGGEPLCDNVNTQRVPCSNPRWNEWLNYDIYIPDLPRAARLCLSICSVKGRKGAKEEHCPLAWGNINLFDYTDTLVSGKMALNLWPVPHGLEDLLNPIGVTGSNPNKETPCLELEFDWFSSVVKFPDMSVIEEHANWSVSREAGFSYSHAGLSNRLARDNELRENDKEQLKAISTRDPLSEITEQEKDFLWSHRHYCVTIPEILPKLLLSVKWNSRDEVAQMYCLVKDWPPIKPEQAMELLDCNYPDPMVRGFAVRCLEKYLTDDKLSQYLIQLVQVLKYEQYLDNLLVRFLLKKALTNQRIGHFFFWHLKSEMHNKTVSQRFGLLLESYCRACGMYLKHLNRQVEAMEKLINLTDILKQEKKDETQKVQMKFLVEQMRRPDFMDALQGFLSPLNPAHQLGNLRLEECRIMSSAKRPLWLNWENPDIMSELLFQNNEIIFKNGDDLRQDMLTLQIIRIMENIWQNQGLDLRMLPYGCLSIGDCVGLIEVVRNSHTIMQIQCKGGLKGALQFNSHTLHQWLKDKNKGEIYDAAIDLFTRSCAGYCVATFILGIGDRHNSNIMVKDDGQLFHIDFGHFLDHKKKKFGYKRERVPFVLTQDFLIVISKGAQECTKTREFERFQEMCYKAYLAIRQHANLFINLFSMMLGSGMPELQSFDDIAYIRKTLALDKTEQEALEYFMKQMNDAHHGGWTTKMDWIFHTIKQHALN
T16 sequence (P27986 whole entry partner): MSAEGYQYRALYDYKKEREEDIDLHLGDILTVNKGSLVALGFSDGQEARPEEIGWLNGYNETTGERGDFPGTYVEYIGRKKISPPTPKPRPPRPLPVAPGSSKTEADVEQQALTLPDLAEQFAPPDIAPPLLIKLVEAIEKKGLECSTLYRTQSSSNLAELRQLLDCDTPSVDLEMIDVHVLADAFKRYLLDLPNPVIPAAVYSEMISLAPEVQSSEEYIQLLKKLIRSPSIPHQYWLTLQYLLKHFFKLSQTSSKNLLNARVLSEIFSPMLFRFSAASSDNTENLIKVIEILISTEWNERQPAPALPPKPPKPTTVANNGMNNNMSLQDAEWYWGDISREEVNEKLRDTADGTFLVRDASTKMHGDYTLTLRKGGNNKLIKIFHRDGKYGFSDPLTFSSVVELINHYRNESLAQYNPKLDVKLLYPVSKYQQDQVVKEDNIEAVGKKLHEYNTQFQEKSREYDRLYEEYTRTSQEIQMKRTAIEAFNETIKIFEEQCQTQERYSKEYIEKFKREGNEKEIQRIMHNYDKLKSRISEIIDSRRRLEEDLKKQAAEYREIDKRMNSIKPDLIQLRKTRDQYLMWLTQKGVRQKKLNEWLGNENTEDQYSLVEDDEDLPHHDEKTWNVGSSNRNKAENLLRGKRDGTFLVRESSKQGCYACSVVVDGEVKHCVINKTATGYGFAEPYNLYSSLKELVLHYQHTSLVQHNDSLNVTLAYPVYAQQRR
Experimental: as §1, §2

[2] = target: T17, PIK3CA/PIK3R3 (p11 0 alpha/p55 gamma) (Homo sapiens, UniProt P42336); details: PIK3CA/PIK3R3; compound at 10µM; read-out: % of Inhibition
T17 construct: purchased Thermo Fisher Scientific
Experimental: as §1, §2

PIP5K1A = target: T18, PIP5K1A (Homo sapiens, UniProt Q99755); details: PIP5K1A; compound at 10µM; read-out: % of Inhibition
T18 construct: purchased Thermo Fisher Scientific
Experimental: as §1, §2

PIP5K1B = target: T19, PIP5K1B (Homo sapiens, UniProt O14986); details: PIP5K1B; compound at 10µM; read-out: % of Inhibition
T19 construct: purchased Thermo Fisher Scientific
Experimental: as §1, §2

PIP5K1C = target: T20, PIP5K1C (Homo sapiens, UniProt O60331); details: PIP5K1C; compound at 10µM; read-out: % of Inhibition
T20 construct: purchased Thermo Fisher Scientific
Experimental: as §1, §2

inhibition at 10 µM (AKT2 (PKB beta)) [%] | inhibition at 10 µM (ALK) [%] | inhibition at 10 µM (BLK) [%] | inhibition at 10 µM (BTK) [%] | inhibition at 10 µM (CSF1R (FMS)) [%] | inhibition at 10 µM (DYRK1A) [%] | inhibition at 10 µM (DYRK1B) [%] | inhibition at 10 µM (EGFR (ErbB1)) [%] | inhibition at 10 µM (GSG2 (Haspin)) [%] | inhibition at 10 µM (IRAK1) [%] | inhibition at 10 µM (LRRK2) [%] | inhibition at 10 µM (MINK1) [%] | inhibition at 10 µM (PI4K2A (PI4K2 alpha)) [%] | inhibition at 10 µM (PI4KB (PI4K beta)) [%] | inhibition at 10 µM (PIK3C2A (PI3K-C2 alpha)) [%] | inhibition at 10 µM [1] [%] | inhibition at 10 µM [2] [%] | inhibition at 10 µM (PIP5K1A) [%] | inhibition at 10 µM (PIP5K1B) [%] | inhibition at 10 µM (PIP5K1C) [%] | Compound
4 | 19 | 23 | 30 | 33 | 14 | 20 | 11 | 29 | 56 | 64 | 57 | 22 | 12 | 26 | 38 | 10 | 20 | 14 | 14 | COc1ccc2c(c1)c1ccnc3c4nc(OC)ccc4c(=O)n2c13 [MW01-E6, 5,15-dimethoxy-1,11,14-triazapentacyclo[10.7.1,0^2,7.0^8,^20.0^13,^18]icosa-2(7),3,5,8(20),9,11,13(18),14,16-nonaen-19-one]
8 | 24 | 10 | 7 | 20 | 53 | 84 | 33 | 36 | 2 | 8 | 29 | -4 | 9 | 10 | 26 | 8 | -9 | -12 | -2 | COc1ccc2nc3c(cc2c1)c(N)nn3C(=O)c1cccc(N(C)C)c1 [MW05-E2, 1-[3-(dimethylamino)benzoyl]-6-methoxy-1H-pyrazolo[3,4-b]quinolin-3-amine]
